In experiment [1] the test system is mice cough induced by ammonia water. Description: Antitussive test, cough induced by ammonia water in mice. Type of experiment: in vivo, mouse. The method, then: Experimental example 6 The effect of protein BD-4 (Example 4 protein) on the antitussive effect of the cough induced by ammonia water in mice. Animals: male ICR mice; Drugs and reagents: dextromethorphan hydrobromide, ammonia, 0.2% CMC-Na, protein BD-4; Apparatus: Compressed nebulizer (403T type), balance (XS105DU type). Experiment Grouping: • Solvent control group; • Dextromethorphan 15 mg/kg group; • Protein BD-4, 20 mg/kg group, 50 mg/kg group. Method: Model Preparation and Administration:
Dextromethorphan and different doses of protein BD-4 (administration volume 10 ml/kg) were given orally in groups, and the solvent control group was given the same volume of distilled water. One hour later, it was put into a sealed box and atomized 10% ammonia water for 10 seconds, and then observed and recorded the incubation period of cough in mice and the number of coughs in 2 minutes.
Record the time point of oral administration, the time point of atomization experiment, the incubation period of mice cough and the number of coughs within 2 minutes, respectively. The incubation period of cough refers to the number of seconds from the start of the atomization of ammonia to the occurrence of cough. The performance of coughing in mice is based on contraction of their abdominal muscles (breast contraction) and opening their mouths at the same time. Calculate the mean and standard error of each group of data, use TTEST to compare the model group with other groups, and P<0.05 is considered as a significant difference.

In experiment [2] the test system is PLO-induced epilepsy in mice. Description: Pilocarpine (PLO) induced convulsive epilepsy in mice. Type of experiment: in vivo, mouse. To be noted: Diazepam 2 mg/kg. The method, then:
Experimental example 3 The pharmacodynamic test of protein BD-4 (Example 4 protein) on convulsive epilepsy in mice caused by the convulsion agent Pilocarpine (PLO)
Model group: • Diazepam (Diazepam) 2 mg/kg group; • Protein BD-4, 50 mg/kg group, 200 mg/kg group. Method: Model Preparation and Administration:
The drug was administered once in the afternoon the day before modeling, PLO-225 mg/kg (modeling agent) was injected intraperitoneally 1 hour after the test drug was given to the stomach on the day of modeling. And positive drug can be administered once 20 minutes before modeling. Observe for 30 minutes after PLO injection.
Observation indicators: 1) Seizure situation: the time of seizures from grade II to grade IV; 2) the time to death.
Attack level: Refer to Racine grading standard: Level 0: No response; Grade I: manifested as twitching of facial muscles or the corners of the mouth; Level II: can nod; Level III: Twitching of one limb; Grade IV: rigidity or body twitching; Grade V: generalized epilepsy (generalized tonic seizures).
Count the number of grade IV seizures and deaths in each group of mice in the experiment; Level II, III and IV incubation period. […] Chi-square test was used for statistics of the number of cases. The mean value and standard error of the incubation period were calculated, and TTEST was used to compare the model group with other groups. P<0.05 was considered as a significant difference.

Experiment [3] has as its system PTZ-induced epilepsy in mice. The experiment in a line: Pentylenetetrazole (PTZ) induced epilepsy in mice. As to conditions: Retigabine 60 mg/kg. It counts as in vivo, mouse. The procedure: Experiment Grouping: • Model group; • Retigabine 60 mg/kg group; • Protein BD-4, 50 mg/kg group, 200 mg/kg group; Method: Model Preparation and Administration:
Administer once in the afternoon the day before modeling, On the day of modeling, intraperitoneal injection of PTZ-65 mg/kg (modeling agent) 1 hour after gavage of the test drug, the positive drug can be administered once half an hour before modeling. Continue to observe for 15 minutes after injection of PTZ.
Observation index: 1) Seizure condition: Onset time of grade III to grade VI; 2) Death situation
Onset level: Refer to Racine grading standard: Level 0: No response; Grade I: manifested as twitching of facial muscles or the corners of the mouth; Level II: Can nod; Grade III: twitching of one limb; Grade IV: Rigidity or body twitching; Grade V: Generalized epilepsy (Generalized tonic seizures).
Count the number of seizures and deaths in each group of mice in the experiment; Level III and IV incubation period. The incubation period of mice that have not attacked to grade IV is recorded as the maximum of 900 seconds. Chi-square test was used for statistics of the number of cases. Calculate the mean and standard error of the incubation period. Use TTEST to compare the model group with other groups, and P<0.05 is considered as a significant difference.

Experiment [4] concerns yeast-induced fever model in rats. Description: Yeast-induced fever model in SD rats. Type of experiment: in vivo, rat. The method, then: Experimental example 1 The pharmacodynamic test of protein BD-4 (the protein in Example 4) on the fever model of SD rats induced by yeast
• Normal control group; • Model group: yeast fever model; • Positive control group: Aspirin 300 mg/kg group; • Protein BD-4, 10 mg/kg group, 50 mg/kg group. Method:
(§1) Preparation of experimental animals: After the experimental animals adapt to the experimental environment (temperature 22° C.±2° C., relative humidity 50%±2%) for 1 day. Pre-adaptation to measure rectal temperature at 8:00 and 15:00, Rats were fasted and water was taken freely 12 h before experiment. let the animal to empty its feces before measuring the rectal temperature. Apply petroleum jelly to the electronic thermometer probe before each temperature measurement. Insert the rat rectum 2 cm (can be marked at 2 cm to ensure that the depth of each insertion is consistent), and record the body temperature after the reading is stable.
(§2) Subcutaneous injection of dry yeast to replicate rat fever model: The body temperature of the rats was measured before modeling. Qualified rats with a body temperature of 36.2-37.3° C. were selected and randomly divided into groups with 8 rats in each group. After oral administration of aspirin and different doses of protein BD-4, 20% yeast suspension (10 ml/kg) was injected subcutaneously immediately, and the normal control group was injected intraperitoneally with an equal volume of normal saline. the rats' body temperature was monitored after 2 hours for a total of 8 hours.
(§3) According to the body temperature measured at each time point on the day of the experiment, calculate the mean, standard deviation and standard error of the body temperature of each group of rats. The data of each group was compared with TTEST, and P<0.05 was considered as a significant difference.

The test system of experiment [5] is lipopolysaccharide (LPS) induced fever in rats. Description: Lipopolysaccharide (LPS) induced fever in SD rats. Type of experiment: in vivo, rat. The procedure: Experimental example 2 The pharmacodynamic test of protein BD-4 (Example 4 protein) on lipopolysaccharide (LPS) induced fever in SD rats.
Experiment Grouping: • Model group: lipopolysaccharide fever model; • Positive control group: Aspirin 300 mg/kg group, • Protein BD-4, 10 mg/kg group, 50 mg/kg group. Method: the method of intraperitoneal injection of Lipopolysaccharide to create fever model in rats.
as §1, with “experiment. before the experiment,” for “experiment.”
as §2, with “Intraperitoneal” for “Subcutaneous”, “lipopolysaccharide” for “dry yeast”, “lipopolysaccharide (20 μg/kg, 2” for “20% yeast suspension (10”, “intraperitoneally” for “subcutaneously”
as §3

Experiment [6] has as its system acetic acid writhing of ICR mice. Description: Acetic acid writhing test in ICR mice. Type of experiment: in vivo, mouse. The procedure: Experimental example 7 The pharmacodynamic test of protein BD-4 (Example 4 protein) on acetic acid writhing in ICR mice. Animals: male ICR mice; Drugs and reagents: aspirin, physiological saline, glacial acetic acid, protein BD-4. Experiment Grouping:
One day after the experimental animals adapt to the environment, Aspirin 300 mg/kg, protein BD-4 50 mg/kg, 200 mg/kg were given orally one hour in advance, and the administration volume was 10 ml/kg; Then, 0.6% acetic acid solution was injected into the abdominal cavity, and the latency period (seconds) and frequency of writhing in the animal was observed within 15 minutes.
Calculate the mean and standard error of the data in each group. Compared with the model group by TTEST, P<0.05 was considered as statistically different.
0.6% acetic acid solution was injected into the abdominal cavity of mice, which caused deep and large area and long-term painful stimulation, causing the mice to writhe (the abdomen was contracted into an “S” shape, the trunk and hind legs were stretched, the buttocks were raised and the hips Row). The incubation time and the number of times the mice began to writhe were used as the pain response index to determine whether the test sample had analgesic effect. […] Compared with the model group, P<0.05, which is statistically significant.

Where [7] appears, read: dextromethorphan 15 mg/kg, P<0.05.
[8] abbreviates: aspirin 300 mg/kg oral, 0.6% acetic acid i.p., within 15 minutes.

Where a name gives a salt, the structure may show the parent alone. Marks after values point to notes of the source that are not given here.

`COc1ccc2c(c1)[C@]13CCCC[C@@H]1[C@H](C2)N(C)CC3` [Dextromethorphan, dextromethorphan hydrobromide, reference compound] displayed an Incubation period in experiment [1] (Dextromethorphan 15 mg/kg oral, cough latency, X ± SEM) of 39.2 ± 2.8 s. In addition, the Number of coughs in experiment [1] (Dextromethorphan 15 mg/kg oral, within 2 minutes, X ± SEM) is recorded as 40.2 ± 3.5. Also, in experiment [1] (setting [7]), the “Cough incubation period vs solvent control group” value is “significant improvement” and the “Number of coughs vs solvent control group” value is recorded as “significant improvement”.
Turning to `CN1C(=O)CN=C(c2ccccc2)c2cc(Cl)ccc21` [Diazepam, reference compound], in experiment [2] (10 mice, PLO 225 mg/kg i.p.), the “Grade IV seizure rate” value is listed as 0** and the mortality rate was 0. Also, in experiment [2] (mean ± SEM), the “Level II onset incubation period” value was found to be 118 ± 9 s and the “Level III onset incubation period” value was 172 ± 13 s. The “Level IV onset incubation period” value in experiment [2] (mean ± SEM, no grade IV attack recorded as 1800 s) was determined as 1800 ± 0 s. The Number of deaths in experiment [2] (of 10 mice, PLO 225 mg/kg i.p.) was 0. For the same compound, in experiment [2] (of 10 mice, PLO 225 mg/kg i.p., 30 min observation), the “Number of Grade IV cases” value was 0**.
Turning to `CCOC(=O)Nc1ccc(NCc2ccc(F)cc2)cc1N` [Retigabine, reference compound], in experiment [3] (10 mice, PTZ 65 mg/kg i.p.), the “Grade IV seizure rate” value is on record as 10%** and the mortality rate amounted to 0. Moreover, the “Level III onset latency” value in experiment [3] (mean ± SEM) was 106 ± 12 s. Besides, the “Grade IV onset latency” value in experiment [3] (mean ± SEM, no grade IV attack recorded as 900 s) was 819 ± 81 s. This compound came in with a Number of deaths in experiment [3] (of 10 mice, PTZ 65 mg/kg i.p.) of 0. In experiment [3] (of 10 mice, PTZ 65 mg/kg i.p., 15 min observation), the “Number of Grade IV cases” value is 1**.
`CC(=O)Oc1ccccc1C(=O)O` [aspirin, reference compound]: the “Body temperature 2 hours after modeling” value was 36.5 ± 0.1 °C in experiment [4] (aspirin 300 mg/kg oral, 2 h after 20% yeast s.c.) and 36.9 ± 0.2 °C in experiment [5] (aspirin 300 mg/kg oral, 2 h after LPS 20 μg/kg i.p.). The “Body temperature 4 hours after modeling” value amounted to 36.9 ± 0.1 °C in experiment [4] (aspirin 300 mg/kg oral, 4 h after 20% yeast s.c.) and 37.0 ± 0.1 °C in experiment [5] (aspirin 300 mg/kg oral, 4 h after LPS 20 μg/kg i.p.). The “Body temperature 6 hours after modeling” value came to 37.0 ± 0.1 °C in experiment [4] (aspirin 300 mg/kg oral, 6 h after 20% yeast s.c.) and 36.9 ± 0.1 °C in experiment [5] (aspirin 300 mg/kg oral, 6 h after LPS 20 μg/kg i.p.). For the same compound, the “Body temperature 8 hours after modeling” value in experiment [4] (aspirin 300 mg/kg oral, 8 h after 20% yeast s.c.) came to 37.2 ± 0.1 °C; in experiment [5] (aspirin 300 mg/kg oral, 8 h after LPS 20 μg/kg i.p.) it was 36.9 ± 0.1 °C. The “Effect on increase in body temperature of model rats” value in experiment [4] (aspirin 300 mg/kg, 4, 6 and 8 hours after modeling, vs model group P<0.05) is “effectively inhibit the increase in body temperature”; in experiment [5] (aspirin 300 mg/kg, 2, 4, 6 and 8 hours after modeling, vs model group P<0.05), “effectively inhibit the increase in body temperature”. The “Frequency of writhing vs model group” value in experiment [6] (Aspirin 300 mg/kg, P<0.05) is “reduce the frequency of writhing”. For the same compound, the “Incubation period of writhing vs model group” value in experiment [6] (Aspirin 300 mg/kg, P<0.05) is recorded as “significantly delay the incubation period of writhing”. In experiment [6] (setting [8]), the Number of twists came to 16.7 ± 2.6 times. Also, the Writhing latency in experiment [6] (setting [8]) was determined as 301.0 ± 30.4 s.

Source of the values: patent US12098176B2, “Keratin BD-4, preparation method, and pharmaceutical composition and use thereof” (Institute of Materia Medica, Chinese Academy of Medical …, priority 2019, dated 2024).
